The results in this text go back to patent US10004730B2, “Small molecules targeting androgen receptor nuclear localization and/or level in prostate cancer” (University of Pittsburgh-Of the Commonwealth System of …, priority 2011, dated 2018).

Structures are written as SMILES.

Series [1] deals with T1, GFP-ER (Homo sapiens, UniProt P03372).
T1 construct: expressed in transfected cells; host or cells: C4-2
Description: GFP-ER nuclear localization in transfected C4-2 cells. Format: cell-based. The following applies: 24 hours. Here is the method: FIG. 7. The effect of SID 14730725 and SID 3712502 on nuclear localization of GFP-ER (Top panel) and GFP-GR (Bottom panel) in C4-2 cells. C4-2 cells were transfected with GFP-ER or GFP-GR overnight. The following day the cells were treated with different concentrations (uM) of the small molecules. The cells transfected with GFP-GR were co-treated with 0.5 μM Dexamethasone. Cells were imaged 24 hours after the treatment with the small molecules.

The subject of series [2] is DU145 cells. The series is described as follows: BrdU incorporation, DU145. Format: cell-based. The following applies: DU145, up to 50 uM, 48 hrs. Here is the method:
(§1) FIGS. 14A-F. Effect of SID 3712502 at indicated concentrations on BrdU incorporation in cultured AR-positive LNCaP (FIG. 14A), C4-2 (FIG. 14B), 22Rv1 (FIG. 14C), LAPC4 (FIG. 14D) cells, and AR-negative DU145 (FIG. 14E) and PC3 (FIG. 14F) cells. Cells were plated in 12-well plates at 2,500 cell per well in RPMI 1640 complete medium. After 24 hrs, the cells were treated with SID 3712502 at the indicated concentrations for 48 hrs and BrdU incorporation was assayed according to manufacturer's instructions (Invitrogen BrdU staining kit; catalog #: 93-3943). The percentage of BrdU-positive cells was determined and then normalized to generate relative BrdU index. Ctrl=DMSO control.

The subject of series [3] is PC3 cells. The series is described as follows: BrdU incorporation, PC3. The class given is cell-based. The conditions noted are these: PC3, up to 50 uM, 48 hrs. Here is the method: as §1
A general note: Uptake of a labelled nucleoside into DNA is a usual measure of proliferation.

Series [4] deals with PC3 tumors. The series is described as follows: PC3 xenograft tumors in castrated SCID mice. Format: in vivo. The following applies: i.p. 25 mg/kg every other day. Here is the method: FIGS. 15A-B. SID 3712502 inhibited the growth of castration resistant 22Rv1 xenograft tumors (FIG. 15A), but not PC3 tumors (FIG. 15B). 22Rv1 or PC3 tumors were established by s.c. injection of 1×10^6 cells into young adult male SCID mice. SCID mice were castrated and randomized when tumor volume reached ˜400 uL. Mice received i.p. delivery of SID 3712502 (25 mg/kg body weight) or vehicle control EPL every other day, beginning 4 days after castration (injection indicated by arrows). Each group consisted of 10 mice for 22Rv1, and 8 mice for PC3 tumors. Tumor volumes were measured using micro-calipers and calculated using the formula (length×width^2)/2. Black and red lines represent data from the animals treated with vehicle (C) and SID 3712502 (SID), respectively. P value was calculated using a two-way ANOVA with the Bonferrroni correction (GraphPad). Error bars=SEM. **p<0.01.

Series [5] in a line: Pilot toxicity experiment in mice. Format: in vivo. The following applies: all doses tested, highest 100 mg/kg; data not shown. Here is the method:
[…]. […] A pilot experiment was also performed testing the toxicity of SID 3712502 in mice.

T1 sequence (P03372 whole entry): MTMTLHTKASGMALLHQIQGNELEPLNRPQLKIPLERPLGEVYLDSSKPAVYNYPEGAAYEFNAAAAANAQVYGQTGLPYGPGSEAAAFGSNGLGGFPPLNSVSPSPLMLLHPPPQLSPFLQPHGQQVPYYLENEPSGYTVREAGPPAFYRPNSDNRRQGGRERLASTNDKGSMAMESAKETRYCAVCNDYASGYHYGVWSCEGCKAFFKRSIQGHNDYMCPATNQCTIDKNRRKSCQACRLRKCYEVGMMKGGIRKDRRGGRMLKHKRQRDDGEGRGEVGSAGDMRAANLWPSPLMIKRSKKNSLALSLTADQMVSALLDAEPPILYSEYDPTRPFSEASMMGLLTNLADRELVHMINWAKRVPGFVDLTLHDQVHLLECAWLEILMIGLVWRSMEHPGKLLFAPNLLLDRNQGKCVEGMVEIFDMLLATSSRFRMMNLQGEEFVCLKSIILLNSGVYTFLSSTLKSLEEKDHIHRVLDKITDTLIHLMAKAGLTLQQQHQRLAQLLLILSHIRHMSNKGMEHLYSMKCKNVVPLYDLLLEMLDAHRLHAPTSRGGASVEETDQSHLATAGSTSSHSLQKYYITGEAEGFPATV

Take `Cc1cccc(N2CCN(C(=O)CSCc3c(C)noc3C)CC2)c1C` [SID 3712502, 2-[(3,5-dimethyl-1,2-oxazol-4-yl)methylsulfanyl]-1-[4-(2,3-dimethylphenyl)piperazin-1-yl]ethanone]: the “localization of GFP-ER” value in series [1] was “no effect”. Further, the “proliferation (BrdU incorporation)” value in series [2] and in series [3] was “no detectable effect” in each case. Further, the “growth of AR-negative PC3 tumor” value in series [4] is on record as “did not inhibit”. The toxicity in mice result in series [5] is “no identifiable effect”.
